# Test results published in patent US20260078120A1, “SUBSTITUTED PYRIDOPYRIMIDINONES” (MIRATI THERAPEUTICS, INC., priority 2022, published 2026).
# Read-outs that look alike come from different tables or passages of the source.
# Key:
# Type in all cases: cell-based
# [1] = tested on: SKBR3 (PI3Kα wild type) cells; experiment: CellTiter-Glo 2.0 luminescent cell viability assay, 72 hours, SKBR3 cells; conditions: SKBR3 (PI3Kα wild type) cells, CellTiter-Glo, approximately 72 hours, read-out: SKBR3 (WT) Viability IC50
# How it was run: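 Viability measured via CTG luminescence following roughly 72 hours of compound exposure at 37° C. Dosing used a 10 um starting concentration diluted 1:4 over 10 points; percent-of-vehicle data fitted with a variable-slope four-parameter model for IC50.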
# [2] = tested on: T47D (PI3Kα H1047R mutant) cells; experiment: Inhibition of pAKT formation, alphaLISA SureFire Ultra AKT 1/2/3 (pS473), T47D cells; conditions: T47D (PI3Kα H1047R mutant) cells, inhibition of pAKT (pS473) formation, approximately one hour or 24 hours treatment, read-out: T47D pAKT (H1047R mutant) IC50
# Description: The ability of a compound of Formula (I) to inhibit the formation of pAKT was measured using alphaLISA Surefire Ultra AKT 1/2/3 (pS473) Assay Kit (#ALSU-PAKT-B50K) was obtained from Perkin Elmer (Waltham, MA).
# To prepare assay plates for pAKT alphaLISA assays, cells were trypsinized, resuspended in fresh media, and viable cells were counted utilizing trypan blue exclusion. Prior to seeding, cells were washed with PBS and resuspended in HBSS (Gibco, #14025092). T47D (12,000/w), SKBR3(12,000/w), or MKN1(24,000/w) cells were seeded at 12 μl per well in a solid white flat bottom 384 cell culture plate (Perkin Elmer #6007680).
# Immediately after seeding, cells were dosed using an Echo Liquid Handler (Beckman Coulter) with compounds at a […] starting concentration and serially diluted (1:4) for a total of 10 concentrations. […] Cells were incubated with the compounds (solubilized in DMSO) for approximately one hour or 24 hours at 37° C. After one hour (or 24 hours) of treatment, cells were lysed with 3 μl of the 5× lysis buffer (provided and incubated at room temperature for 15 min on a microtiter plate shaker). Once cells were sufficiently lysed, 7.5 μl of the acceptor bead mix (made using the manufacturers recommended dilutions) was added to each well and left on the microtiter plate shaker for 1 min prior to incubating plates at room temperature for one hour, in the absence of light. After one hour of incubation with the acceptor bead mix, 7.5 μl of the donor bead mix (made using the manufacturers recommended dilutions) was added to each well and left on the microtiter plate shaker for 1 min prior to incubating plates at room temperature overnight in the absence of light. Plates were then imaged the following day using a CLARIOstar microplate reader (BMG Labtech, Germany).
# Percent of control values were calculated by subtracting the average signal from the positive control (alpelisib) treated wells from all treated wells (including DMSO control wells) and then divided by the average signal from the vehicle DMSO treated control wells. Percent of vehicle control values were plotted as log (inhibitor) vs. response-Variable slope (four parameters) for curve fitting and IC50 values were determined using XLfit.
# Key: N.D. =not determined
# Inhibition of pAKT in T47D (PI3Kα H1047R mutant) cells by Exemplary Compounds of Formula (I)
# [3] = tested on: T47D (PI3Kα H1047R mutant) cells; experiment: CellTiter-Glo 2.0 luminescent cell viability assay, 72 hours, T47D cells; conditions: T47D (PI3Kα H1047R mutant) cells, CellTiter-Glo, approximately 72 hours, read-out: T47D (H1047R mutant) Viability IC50
# How it was run: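 Cells seeded at 1000 per well overnight were dosed with a 10-concentration, 1:4 series starting at 10 µM and incubated ~72 h at 37° C. Viability was read by CellTiter-Glo 2.0 luminescence after 30 min at room temperature. IC50 came from four-parameter fits of percent vehicle control.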
Compound,IC50 [1],"IC50 ([2]; Homo sapiens, T47D)",IC50 [3],"IC50 ([1]; Homo sapiens, SK-BR-3, 72 h)","IC50 ([3]; Homo sapiens, T47D, 72 h)",IC50 [2]
"Cc1cc([C@@H](C)Nc2ccc(Cl)nc2C(=O)O)c2nc(N3Cc4ccccc4C3)c(C)c(=O)n2c1 [Example 10-30, (R)-6-chloro-3-((1-(2-(isoindolin-2-yl)-3,7-dimethyl-4-oxo-4H-pyrido[1,2-a]pyrimidin-9-yl)ethyl)amino)picolinic acid]",> 10000 nM,3.62 nM,55 nM,,,
"Cc1cc([C@@H](C)Nc2ccccc2C(=O)O)c2nc(N3CCC(F)(F)[C@@H]3C)c(C#N)c(=O)n2c1 [Example 10-31, 2-(((R)-1-(3-cyano-2-((S)-3,3-difluoro-2-methylpyrrolidin-1-yl)-7-methyl-4-oxo-4H-pyrido[1,2-a]pyrimidin-9-yl)ethyl)amino)benzoic acid]",,6.39 nM,,> 10000 nM,55.1 nM,
"Cc1cc([C@@H](C)Nc2ccccc2C(=O)O)c2nc(N3CCC(F)(F)[C@H]3C)c(C#N)c(=O)n2c1 [Example 10-32, 2-(((R)-1-(3-cyano-2-((R)-3,3-difluoro-2-methylpyrrolidin-1-yl)-7-methyl-4-oxo-4H-pyrido[1,2-a]pyrimidin-9-yl)ethyl)amino)benzoic acid]",,5.78 nM,,> 10000 nM,67.3 nM,
"Cc1cc([C@@H](C)Nc2ccccc2C(=O)O)c2nc(N3CCN(c4nccs4)CC3)c(C)c(=O)n2c1 [Example 10-33, (R)-2-((1-(3,7-dimethyl-4-oxo-2-(4-(thiazol-2-yl)piperazin-1-yl)-4H-pyrido[1,2-a]pyrimidin-9-yl)ethyl)amino)benzoic acid]",,2.19 nM,,> 10000 nM,56.5 nM,
"Cc1cc([C@@H](C)Nc2ccccc2C(=O)O)c2nc(N3CCN(c4ccccn4)CC3)c(C)c(=O)n2c1 [Example 10-34, (R)-2-((1-(3,7-dimethyl-4-oxo-2-(4-(pyridin-2-yl)piperazin-1-yl)-4H-pyrido[1,2-a]pyrimidin-9-yl)ethyl)amino)benzoic acid]",,1.38 nM,,> 10000 nM,56.6 nM,
"Cc1cc([C@@H](C)Nc2ccccc2C(=O)O)c2nc(N3CCN(c4ccc(C#N)c5cc(C#N)ccc45)CC3)c(C)c(=O)n2c1 [Example 10-35, (R)-2-((1-(2-(4-(4,6-dicyanonaphthalen-1-yl)piperazin-1-yl)-3,7-dimethyl-4-oxo-4H-pyrido[1,2-a]pyrimidin-9-yl)ethyl)amino)benzoic acid]",,4.72 nM,,7950 nM,56.7 nM,
"Cc1cc([C@@H](C)Nc2ccccc2C(=O)O)c2nc(N3CCN(c4ccc(F)cc4)CC3)c(C)c(=O)n2c1 [Example 10-36, (R)-2-((1-(2-(4-(4-fluorophenyl)piperazin-1-yl)-3,7-dimethyl-4-oxo-4H-pyrido[1,2-a]pyrimidin-9-yl)ethyl)amino)benzoic acid]",,3.8 nM,,> 10000 nM,57 nM,
"Cc1cc([C@@H](C)Nc2ccccc2C(=O)O)c2nc(NC3CC(F)(F)C3)c(C#N)c(=O)n2c1 [Example 10-37, (R)-2-((1-(3-cyano-2-((3,3-difluorocyclobutyl)amino)-7-methyl-4-oxo-4H-pyrido[1,2-a]pyrimidin-9-yl)ethyl)amino)benzoic acid]",,2.19 nM,,> 10000 nM,57.4 nM,
"Cc1cc([C@@H](C)Nc2ccccc2C(=O)O)c2nc(N3CCN(c4cccnc4)CC3)c(C)c(=O)n2c1 [Example 10-38, (R)-2-((1-(3,7-dimethyl-4-oxo-2-(4-(pyridin-3-yl)piperazin-1-yl)-4H-pyrido[1,2-a]pyrimidin-9-yl)ethyl)amino)benzoic acid]",,1.97 nM,,> 10000 nM,57.9 nM,
"C[C@@H](Nc1ccccc1C(=O)O)c1cc(F)cn2c(=O)c(C#N)c(N3Cc4ccccc4C3)nc12 [Example 10-39, (R)-2-((1-(3-cyano-7-fluoro-2-(isoindolin-2-yl)-4-oxo-4H-pyrido[1,2-a]pyrimidin-9-yl)ethyl)amino)benzoic acid]",,1.7 nM,,> 10000 nM,59 nM,
"Cc1cc([C@@H](C)Nc2ccccc2C(=O)O)c2nc(N3CCN(c4ccc(F)cc4)CC3)c(C#N)c(=O)n2c1 [Example 10-40, (R)-2-((1-(3-cyano-2-(4-(4-fluorophenyl)piperazin-1-yl)-7-methyl-4-oxo-4H-pyrido[1,2-a]pyrimidin-9-yl)ethyl)amino)benzoic acid]",,1.91 nM,,> 10000 nM,60 nM,
"Cc1cc([C@@H](C)Nc2ccccc2C(=O)O)c2nc(N3CCN(c4ccc(C#N)cc4)[C@@H](C)C3)c(C#N)c(=O)n2c1 [Example 10-41, 2-(((R)-1-(3-cyano-2-((S)-4-(4-cyanophenyl)-3-methylpiperazin-1-yl)-7-methyl-4-oxo-4H-pyrido[1,2-a]pyrimidin-9-yl)ethyl)amino)benzoic acid]",,7.18 nM,,> 10000 nM,60.2 nM,
"Cc1cc([C@@H](C)Nc2ccccc2C(=O)O)c2nc(N3CCN(c4ccc(C#N)cc4)C[C@H]3C)c(C)c(=O)n2c1 [Example 10-42, 2-(((R)-1-(2-((R)-4-(4-cyanophenyl)-2-methylpiperazin-1-yl)-3,7-dimethyl-4-oxo-4H-pyrido[1,2-a]pyrimidin-9-yl)ethyl)amino)benzoic acid]",9870 nM,,61.5 nM,,,3.09 nM
"Cc1cc([C@@H](C)Nc2ccccc2C(=O)O)c2nc(N3Cc4ccccc4C3)c(C#N)c(=O)n2c1 [Example 10-43, (R)-2-((1-(3-cyano-2-(isoindolin-2-yl)-7-methyl-4-oxo-4H-pyrido[1,2-a]pyrimidin-9-yl)ethyl)amino)benzoic acid]",,2.52 nM,,> 10000 nM,62.2 nM,
"Cc1cc([C@@H](C)Nc2ccccc2C(=O)O)c2nc(N3CC(C)C(F)(F)C3)c(C#N)c(=O)n2c1 (stereo partly drawn) [Example 10-44, 2-(((1R)-1-(3-cyano-2-(3,3-difluoro-4-methylpyrrolidin-1-yl)-7-methyl-4-oxo-4H-pyrido[1,2-a]pyrimidin-9-yl)ethyl)amino)benzoic acid]",,1.47 nM,,5030 nM,62.5 nM,
"Cc1cc([C@@H](C)Nc2ccccc2C(=O)O)c2nc(N3CCN(c4ccccc4C#N)CC3)c(C)c(=O)n2c1 [Example 10-45, (R)-2-((1-(2-(4-(2-cyanophenyl)piperazin-1-yl)-3,7-dimethyl-4-oxo-4H-pyrido[1,2-a]pyrimidin-9-yl)ethyl)amino)benzoic acid]",,2.94 nM,,> 10000 nM,64.2 nM,
"Cc1cc([C@@H](C)Nc2ccccc2C(=O)O)c2nc(N3CCN(c4cc(C)no4)CC3)c(C)c(=O)n2c1 [Example 10-48, (R)-2-((1-(3,7-dimethyl-2-(4-(3-methylisoxazol-5-yl)piperazin-1-yl)-4-oxo-4H-pyrido[1,2-a]pyrimidin-9-yl)ethyl)amino)benzoic acid]",,2.96 nM,,> 10000 nM,66.3 nM,
"Cc1cc([C@@H](C)Nc2ccccc2C(=O)O)c2nc(N(C)C3CC(F)(F)C3)c(C#N)c(=O)n2c1 [Example 10-49, (R)-2-((1-(3-cyano-2-((3,3-difluorocyclobutyl)(methyl)amino)-7-methyl-4-oxo-4H-pyrido[1,2-a]pyrimidin-9-yl)ethyl)amino)benzoic acid]",,2.11 nM,,> 10000 nM,66.4 nM,
"Cc1cc([C@@H](C)Nc2ccc(Cl)nc2C(=O)O)c2nc(N3Cc4ccc(F)cc4C3)c(C#N)c(=O)n2c1 [Example 10-50, (R)-6-chloro-3-((1-(3-cyano-2-(5-fluoroisoindolin-2-yl)-7-methyl-4-oxo-4H-pyrido[1,2-a]pyrimidin-9-yl)ethyl)amino)picolinic acid]",,1.34 nM,,> 10000 nM,66.5 nM,
